{"source": "patent US20100254928A1", "about": "“NOVEL COMPOSITION CONTAINING OZONIZED SURFACTANT” (priority 2007, published 2010)", "key": {"[1]": {"test_system": "Sprague-Dawley female rats", "experiment": "Single dose oral toxicity test", "format": "in vivo", "parameters": "key to General conditions, 3 hours after administration / General conditions, 1 hour after administration / General conditions, 2 hours after administration: D: diarrhea; LS: loose stool; RF: reddish feces; DL: decrease in locomotor activity; *: the result was observed at 4 hours after administration", "details": "for rats that developed symptoms on the administration day: transient, resolved by the 2nd day", "experimental": "In order to roughly determine the lethal dose of the ozonized surfactant used for the present invention, an acute single dose oral toxicity test was performed according to “OECD Guideline for Testing of Chemicals, Acute Oral Toxicity-Acute Toxic Class Method”, Revised Guideline 423, adopted on Mar. 22, 1996 and revised on Dec. 17, 2001) by administering the solution A described in Example 4 to 12 Sprague-Dawley [Ctr: CD (SD), SPF ] female rats. Rats were divided into 4 groups each consisting of 3 rats. For each rat, an appropriate liquid volume was calculated based on individual body weight so that the solution A in an amount equivalent to 300 mg/kg of the ozonized surfactant was administered to 2 groups (6 rats) and the solution in an amount equivalent to 2000 mg/kg was administered to the other 2 groups (6 rats), with the use of a gastric tube for rats. (These groups will be hereinafter referred to as 300 mg/kg administration groups and 2000 mg/kg administration groups, respectively.) Counting the administration day as the 1st day, general conditions of the rats were observed until the 15th day, and the number of dead individuals was counted. The general conditions of all the animals were observed once before administration, intermittently for 1 hour after administration, and subsequently about every hour until 3 hours (of some rats until 4 hours) after administration. Since the 2nd day, the observation was repeated daily.\nIn the table, D, LS, RF and DL mean diarrhea, loose stool, reddish feces and decrease in locomotor activity, respectively."}, "[2]": {"test_system": "insects such as ants", "experiment": "Repellent activity (Test Example 14)", "format": "in vivo, pill bug", "details": "8 hours", "experimental": "The repellent performance of the ozonized surfactant of the present invention was checked. […] In addition, 1 g of honey was instilled into the center. […] These specimens were placed on leaf mold in a flower bed, and the conditions were observed 8 hours later."}, "[3]": {"test_system": "Escherichia coli", "experiment": "Bactericidal activity test with variation of the period of action", "format": "cell-based", "experimental": "(§1) In order to check the bactericidal activity of the ozonized surfactant, a bactericidal activity test was performed with variation of the period of action.\n(§2) Developed colonies were scraped off and a bacterial solution of about 10^8 CFU/mL was prepared.\n(§3) Into 50 mL centrifuging tubes, 10 mL each of 0.5% and 0.05% aqueous solutions of the ozonized surfactant obtained in Example 4 were separately poured. To each solution, 0.1 mL of sample bacterial solution was inoculated and mixed for a predetermined period of action at room temperature. To 10 mL of SCDLP bouillon medium (EIKEN CHEMICAL) of which the effectiveness as an inactivator had been confirmed beforehand, 0.1 mL of the resulting solution after a predetermined period of action was added for inactivation of bactericidal components. Then the bacteria count was measured. As a control test, the same operation was performed with the use of an unozonized surfactant or sterile purified water. A 10-fold serial dilution of each sample solution after inactivation was prepared. Each 1 mL of the undiluted and diluted sample solutions were separately mixed with about 20 mL of agar medium, and then cultured. After culturing, the number of colony forming units per 1 mL of each sample solution was counted."}, "[4]": {"test_system": "Staphylococcus aureus", "experiment": "Bactericidal activity test with variation of the period of action", "format": "cell-based", "experimental": "as §1, §2, §3"}, "[5]": {"test_system": "Pseudomonas aeruginosa", "experiment": "Bactericidal activity test with variation of the period of action", "format": "cell-based", "experimental": "as §1, §2, §3"}, "[6]": {"experiment": "Temporal change in oxidizing property (iodine titration method)", "format": "physicochemical", "details": "1% aqueous solution, 25° C., 700 days", "source_text": "After deaerating the obtained aqueous ozonized surfactant solution to remove dissolved ozone gas by helium purging, the oxidizing property of the aqueous ozonized surfactant solution can be determined by the iodine titration method (see Non Patent Literature 1). Whether or not the aqueous ozonized surfactant solution maintains a function as a surfactant can be evaluated by checking whether or not frothing, which is a characteristic of surfactants, occurs when the solution is agitated or vibrated.\nMeanwhile, oxygen was supplied from an oxygen cylinder into an ozonizer (ozonizer GR-RB made by Sumitomo Precision Products Co., Ltd.) at an oxygen flow rate of 0.3 L/min to ozonize the oxygen to produce ozone gas. Then, the ozone gas was dissolved in the above-described aqueous solution in a dissolving module (SEK model made by ERC Technology), and the aqueous solution was circulated at a flow rate of 1 L/min. […] Further, in 30 minutes, the concentration increased to 25 ppm (see FIG. 2). After deaerating the aqueous solution that had undergone about 30-minute ozone treatment to remove dissolved ozone gas by helium purging, oxidizing property of the aqueous solution was determined by the iodine titration method. As a result, the aqueous solution had oxidizing property, and frothing, which is a characteristic of surfactants, was observed. The results confirmed that ozonized Tween 80 had been produced. Further, a temporal change in the oxidizing property of the aqueous solution was determined by the iodine titration method at 25° C. for 20 days. As a result, the percentage of oxidizing property measured after 20 days to that measured just after preparation was 109%.\nThe solution A was diluted to a 1% aqueous solution, and a temporal change in the oxidizing property of the aqueous solution was determined by the iodine titration method at 25° C. for 700 days. As a result, the percentage of oxidizing property measured after 700 days to that measured just after preparation was 101%."}, "[7]": {"details": "300 mg/kg administration group (6 rats)"}, "[8]": {"details": "2000 mg/kg administration group (6 rats)"}, "[9]": {"details": "2000 mg/kg oral, per animal, — = no symptom, listed as solution A"}, "[10]": {"details": "Conc. 0.05%, period of action 10 min"}, "[11]": {"details": "Conc. 0.05%, period of action 30 min"}, "[12]": {"details": "Conc. 0.5%, period of action 5 min"}, "[13]": {"details": "Conc. 0.5%, period of action 10 min"}, "[14]": {"details": "Conc. 0.5%, period of action 30 min"}}, "note": "Values joined by “and” are separate entries in the source; they are usually repeats but may differ in a detail not shown here. Equal values may be shown once."}
{"substance": "Ozonized POE (10 EO) oleyl ether [Example 4]", "values": [{"measurement": "Death until the 15th day", "setting": "[1]; [7]", "value": "Death was not found"}, {"measurement": "rats that developed symptoms on the administration day", "setting": "[1]; [7]", "value": 1, "unit": "rat"}, {"measurement": "General conditions, 3 hours after administration", "setting": "[1]; 300 mg/kg oral, per animal, — = no symptom", "value": "LS*"}, {"measurement": "Decrease in locomotor activity (number of animals)", "setting": "[1]; 2-15 days, all 12 rats", "value": 0}, {"measurement": "Diarrhea or loose stool (number of animals)", "setting": "[1]; 2-15 days, all 12 rats", "value": 0}, {"measurement": "Reddish feces (number of animals)", "setting": "[1]; 2-15 days, all 12 rats", "value": 0}, {"measurement": "Death until the 15th day", "setting": "[1]; [8]", "value": "Death was not found"}, {"measurement": "rats that developed symptoms on the administration day", "setting": "[1]; [8]", "value": 5, "unit": "rats"}, {"measurement": "General conditions, 1 hour after administration", "setting": "[1]; [9]", "value": "D, DL and D, RF and D (2×)"}, {"measurement": "General conditions, 2 hours after administration", "setting": "[1]; [9]", "value": "D"}, {"measurement": "General conditions, 3 hours after administration", "setting": "[1]; [9]", "value": "D* and LS and D (2×)"}, {"measurement": "Body weight transition during the observation period", "setting": "[1]; 300 and 2000 mg/kg, 15 days", "value": "favorable"}, {"measurement": "Decrease in locomotor activity (number of animals)", "setting": "[1]; 1 hour, all 12 rats", "value": 2}, {"measurement": "Reddish feces (number of animals)", "setting": "[1]; 1 hour, all 12 rats", "value": 1}, {"measurement": "Diarrhea or loose stool (number of animals)", "setting": "[1]; 1 hour, all 12 rats (300 and 2000 mg/kg)", "value": 4}, {"measurement": "Decrease in locomotor activity (number of animals)", "setting": "[1]; 2 hours, all 12 rats", "value": 0}, {"measurement": "Diarrhea or loose stool (number of animals)", "setting": "[1]; 2 hours, all 12 rats", "value": 3}, {"measurement": "Reddish feces (number of animals)", "setting": "[1]; 2 hours, all 12 rats", "value": 0}, {"measurement": "Decrease in locomotor activity (number of animals)", "setting": "[1]; 3 hours, all 12 rats", "value": 0}, {"measurement": "Diarrhea or loose stool (number of animals)", "setting": "[1]; 3 hours, all 12 rats", "value": 5}, {"measurement": "Reddish feces (number of animals)", "setting": "[1]; 3 hours, all 12 rats", "value": 0}, {"measurement": "LD50 cut-off value", "setting": "[1]; oral, rat", "value": "infinite"}, {"measurement": "acute toxicity classification of the GHS", "setting": "[1]; oral, rat", "value": "Category 5 or does not correspond to any of the acute toxicity categories"}, {"measurement": "insects gathered on the specimen", "setting": "[2]; 2 mL of 1% aqueous solution on tissue paper with 1 g honey", "value": "did not gather at all"}, {"measurement": "insects gathered on the specimen", "setting": "[2]; 2 mL of 10% aqueous solution on tissue paper with 1 g honey", "value": "did not gather at all"}, {"measurement": "bacteria count", "setting": "[3]; Conc. 0.05%, period of action 5 min, 0 min 3.8 × 10^6", "value": "4.8 × 10^6 CFU/mL"}, {"measurement": "bacteria count", "setting": "[3]; [10]", "value": "<1 × 10^2 CFU/mL"}, {"measurement": "bacteria count", "setting": "[3]; [11]", "value": "<1 × 10^2 CFU/mL"}, {"measurement": "bacteria count", "setting": "[3]; [12]", "value": "<1 × 10^2 CFU/mL"}, {"measurement": "bacteria count", "setting": "[3]; [13]", "value": "<1 × 10^2 CFU/mL"}, {"measurement": "bacteria count", "setting": "[3]; [14]", "value": "<1 × 10^2 CFU/mL"}, {"measurement": "bacteria count", "setting": "[4]; Conc. 0.05%, period of action 5 min, 0 min 8.2 × 10^6", "value": "<1 × 10^2 CFU/mL"}, {"measurement": "bacteria count", "setting": "[4]; [10]", "value": "1 × 10^2 CFU/mL"}, {"measurement": "bacteria count", "setting": "[4]; [11]", "value": "<1 × 10^2 CFU/mL"}, {"measurement": "bacteria count", "setting": "[4]; [12]", "value": "<1 × 10^2 CFU/mL"}, {"measurement": "bacteria count", "setting": "[4]; [13]", "value": "<1 × 10^2 CFU/mL"}, {"measurement": "bacteria count", "setting": "[4]; [14]", "value": "<1 × 10^2 CFU/mL"}, {"measurement": "bacteria count", "setting": "[5]; Conc. 0.05%, period of action 5 min, 0 min 4.5 × 10^6", "value": "1.5 × 10^2 CFU/mL"}, {"measurement": "bacteria count", "setting": "[5]; [10]", "value": "<1 × 10^2 CFU/mL"}, {"measurement": "bacteria count", "setting": "[5]; [11]", "value": "<1 × 10^2 CFU/mL"}, {"measurement": "bacteria count", "setting": "[5]; [12]", "value": "<1 × 10^2 CFU/mL"}, {"measurement": "bacteria count", "setting": "[5]; [13]", "value": "<1 × 10^2 CFU/mL"}, {"measurement": "bacteria count", "setting": "[5]; [14]", "value": "<1 × 10^2 CFU/mL"}, {"measurement": "percentage of oxidizing property measured after 700 days to that measured just after preparation", "setting": "[6]", "value": 101, "unit": "%"}]}
